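Each compound was tested at five concentrations against cells in 96-well plates for 48 hours. At the TGI there is no net growth.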
Columns and labels:
Assay in all cases: NCI tumour cell line growth inhibition, 48 h
[1] = system: 786-0 renal
[2] = system: A498 renal
[3] = system: A549 NSCLC
[4] = system: ACHN renal
[5] = system: CCRF-CEM leukemia
[6] = system: COLO 205 colon
[7] = system: DLD-1 colon
[8] = system: DMS 114 small cell lung
[9] = system: DMS 273 small cell lung
[10] = system: EKVX NSCLC
[11] = system: HCT-116 colon
[12] = system: HCT-15 colon
[13] = system: HL-60(TB) leukemia
[14] = system: HOP-62 NSCLC
[15] = system: HOP-92 NSCLC
[16] = system: HT29 colon
[17] = system: IGROV1 ovarian
[18] = system: KM12 colon
[19] = system: KM20L2 colon
[20] = system: LOX IMVI melanoma
[21] = system: LXFL 529 NSCLC
[22] = system: M14 melanoma
[23] = system: M19-MEL melanoma
[24] = system: MALME-3M melanoma
[25] = system: MOLT-4 leukemia
[26] = system: NCI-H226 lung
[27] = system: NCI-H23 lung
[28] = system: NCI-H460 lung
[29] = system: NCI-H522 lung
[30] = system: OVCAR-3 ovarian
[31] = system: OVCAR-4 ovarian
[32] = system: OVCAR-5 ovarian
[33] = system: OVCAR-8 ovarian
[34] = system: RPMI-8226 leukemia
[35] = system: SF-268 CNS
[36] = system: SF-295 CNS
[37] = system: SF-539 CNS
[38] = system: SK-MEL-2 melanoma
[39] = system: SK-MEL-28 melanoma
[40] = system: SK-MEL-5 melanoma
[41] = system: SK-OV-3 ovarian
[42] = system: SN12C renal
[43] = system: SNB-75 CNS
[44] = system: SNB-78 CNS
[45] = system: SR leukemia
[46] = system: TK-10 renal
[47] = system: U251 CNS
[48] = system: UACC-257 melanoma
[49] = system: UACC-62 melanoma
[50] = system: UO-31 renal
[51] = system: CAKI-1 renal
[52] = system: HCC-2998 colon
[53] = system: K-562 leukemia
[54] = system: SNB-19 CNS
[55] = system: SW-620 colon
[56] = system: XF 498 CNS

Measured: TGI

CCn1c(SC(C)C(=O)c2c(C)n(C)n(-c3ccccc3)c2=O)nc2ccccc2c1=O (centres undefined)
> 100 µM: [1] | [2] | [3] | [4] | [5] | [6] | [7] | [8] | [9] | [10] | [11] | [12] | [13] | [14] | [15] | [16] | [17] | [18] | [19] | [20] | [21] | [22] | [23] | [24] | [25] | [26] | [27] | [28] | [29] | [30] | [31] | [32] | [33] | [34] | [35] | [36] | [37] | [38] | [39] | [40] | [41] | [42] | [43] | [44] | [45] | [46] | [47] | [48] | [49] | [50]

Cc1cc(-c2ccccc2)nc(Nc2nc3ccccc3o2)n1
> 100 µM: [1] | [2] | [3] | [4] | [51] | [5] | [6] | [7] | [8] | [10] | [52] | [11] | [12] | [13] | [14] | [15] | [16] | [17] | [53] | [18] | [19] | [20] | [21] | [22] | [23] | [24] | [25] | [26] | [27] | [28] | [29] | [30] | [31] | [32] | [33] | [34] | [35] | [36] | [37] | [38] | [39] | [40] | [41] | [42] | [54] | [44] | [45] | [55] | [46] | [47] | [48] | [49] | [50] | [56]

Reference: PubChem BioAssay (NCI)
